Data published in BigSolDB 2.1.

Sc1nc2ccccc2[nH]1
solubility (mole fraction)
Conditions	278.15 K	283.15 K	288.15 K	293.15 K	298.15 K	303.15 K	308.15 K	313.15 K	318.15 K
in 1,4-dioxane	0.0141	0.0153	0.0166	0.0181	0.0195	0.021	0.0227	0.0246	0.0265
in 2-butanone	0.0103	0.011	0.0117	0.0124	0.0133	0.0141	0.0151	0.0162	0.0172
in acetone	0.0121	0.0128	0.0135	0.0143	0.0152	0.016	0.0169	0.0179	0.0189
in acetonitrile	0.00102	0.00115	0.00129	0.00146	0.00163	0.00183	0.00205	0.00228	0.00257
in cyclohexane	4.36e-06	5.51e-06	7.05e-06	8.99e-06	1.16e-05	1.49e-05	1.88e-05	2.27e-05	2.81e-05
in ethanol	0.00532	0.00634	0.00746	0.00868	0.00998	0.0114	0.0126	0.0142	0.0158
in ethyl acetate	0.00198	0.00236	0.00275	0.00318	0.00366	0.00413	0.00463	0.00518	0.00577
in isopropanol	0.0034	0.00435	0.00528	0.00635	0.00755	0.0088	0.0102	0.0116	0.0132
in methanol	0.00625	0.0073	0.00848	0.00964	0.0109	0.0123	0.0138	0.0152	0.0169
in n-butanol	0.0041	0.0049	0.0058	0.0069	0.00809	0.00941	0.0109	0.0125	0.0144
in n-propanol	0.00484	0.00559	0.0065	0.00759	0.00872	0.00999	0.0114	0.0131	0.0151
in toluene	2.01e-05	2.73e-05	3.51e-05	4.35e-05	5.3e-05	6.38e-05	7.53e-05	8.87e-05	0.000104
